Several values for one entry are separate records, joined by “and”; a condition that tells them apart may be missing. Equal values may be shown once.
Experiments:
[1] = system: PC3 PD-L1 and PC3 mock cells; experiment: In vitro cell uptake in PC3 PD-L1 and PC3 mock cells; assay type: cell-based, human; conditions: for uptake/binding to PC3 PD-L1-positive cells vs PC3 mock cells: mixed-effects model, main effect of cell type; for incubation time at which cell uptake plateaued: PC3 cells, incubation 30–240 min at or close to KD
Description: Both the target-positive (PC3 PD-L1) and negative cells (PC3 mock) were seeded at ~60,000 cells per well two days prior to the experiment. At the time of experiment, cells were then incubated with the respective radioligand at or close to the KD (determined by saturation binding) in binding buffer. For each timepoint and radiotracer (30, 60, 120 and 240 min), a single plate was used (with triplicate measurements). Additional controls per plate included plastic retention, nonspecific binding [excess of unlabeled BMS-1166 (in DMSO, resulting in 0.03% v/v) for both PC3 PD-L1 and PC3 mock] and cells incubated with PBS only (protein control). Following incubation, cells were washed twice in ice-cold binding buffer, lysed in 500 μL of 0.1 M NaOH + 1% SDS and radioactivity was measured in a gamma counter (Perkin Elmer Wizard 1480) and decay corrected to a reference time (end of radiolabeling).
Protein content was determined for each timepoint and cell type by BCA assay.
Figure S27: Cell uptake (fmol/mg protein) of [64Cu]Cu-14&16 into either PC3 PD-L1 or PC3 mock cells. Uptake of both […]
effects model. Binding to PC3 mock cells is similar to that of PC3 PD-L1 and PC3 mock cells blocked with an excess of […]

PD-L1 = PD-L1 (Homo sapiens, UniProt Q9NZQ7); experiment: Saturation binding assay on human PD-L1 transduced PC3 cells (assay buffer with 2.5% BSA); design: expressed in transfected cells; host or cells: PC3 cells transduced with human PD-L1 (PC3-PD-L1); conditions: for Kd: human PD-L1 transduced PC3 cells, on ice 90 min, PBS + 2.5% w/v BSA; for Bmax: saturation binding, pmol/mg protein, PC3 PD-L1 cells
Sequence of PD-L1 (Q9NZQ7 19-290): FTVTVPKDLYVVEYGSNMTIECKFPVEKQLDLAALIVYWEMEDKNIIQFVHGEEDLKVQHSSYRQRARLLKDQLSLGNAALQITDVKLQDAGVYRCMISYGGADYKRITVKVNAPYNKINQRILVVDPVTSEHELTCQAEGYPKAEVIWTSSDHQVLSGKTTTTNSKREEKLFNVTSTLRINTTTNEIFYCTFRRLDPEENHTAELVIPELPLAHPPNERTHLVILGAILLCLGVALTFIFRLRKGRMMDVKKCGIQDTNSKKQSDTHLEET

[2] = Proteolytic stability in human serum at 37 °C, radio-HPLC; assay type: in vitro ADME; conditions: 48 h
Description: For proteolytic stability studies, a solution of the radiolabeled compound was diluted with human serum in a ratio of 1:10. This mixture then underwent incubation at 37 °C while being shaken at 300 rpm. At each designated timepoint (1, 24 and 48 h), an aliquot was withdrawn and added to a detergent solution (water with 20% v/v EtOH, 5% v/v 5 mM aqueous EDTA, 0.5% v/v Triton X-100, 0.1% m/v saponin, 0.05% v/v 0.5 mM aqueous o-phenanthroline) in a ratio of 1:2 for precipitation of serum proteins. The mixture was cooled on ice for 5 min, followed by centrifugation at 12,000 g for 5 min. A minor portion of the resulting supernatant was subjected to analytical radio-HPLC (reversed-phase, Phenomenex Jupiter 300 C-18, 5 µm, 4.6 × 250 mm) with 10–95% acetonitrile (0.1% TFA) in water (0.1% TFA) in a linear gradient over 15 min, 1 mL/min, γ-detection). The assessment and graphical representations were performed using OriginPro® 9.0.

Structure (SMILES)	uptake/binding to PC3 PD-L1-positive cells vs PC3 mock cells ([1]; listed as [64Cu]Cu-16)	Kd (PD-L1)	Bmax (PD-L1)	intact radioligand after incubation in human serum [2]	incubation time at which cell uptake plateaued [1]	incubation time at which cell uptake plateaued ([1]; listed as [64Cu]Cu-14)	uptake/binding to PC3 PD-L1-positive cells vs PC3 mock cells ([1]; listed as [64Cu]Cu-14)
Cc1c(COc2cc(OCc3cncc(S(C)(=O)=O)c3)c(CN[C@@H](CS(=O)(=O)O)C(=O)NCCS(=O)(=O)O)cc2Br)cccc1-c1cccc(OCc2cn(CCCN3CCN(C(=O)[C@H](CS(=O)(=O)O)NC(=O)CCCC(=O)NC45CNCCNCC(N)(CNCCNC4)CNCCNC5)CC3)nn2)c1C.[64Cu+2] [[^64Cu]Cu-16]	significant main effect of target expression	265 ± 12.5 nM	3.30 pmol/mg and 3.30 ± 0.46 pmol/mg	89%	–	–	–
Cc1c(COc2cc(OCc3cncc(S(C)(=O)=O)c3)c(CN[C@@H](CS(=O)(=O)O)C(=O)NCCS(=O)(=O)O)cc2Br)cccc1-c1cccc(OCc2cn(CCCN3CCN(C(=O)[C@H](CS(=O)(=O)O)NC(=O)CC[C@H](C(=O)[O-])N4CCN(CC(=O)[O-])CCN(CC(=O)[O-])CC4)CC3)nn2)c1C.[64Cu+2] [[^64Cu]Cu-14]	–	100 nM	2.40 pmol/mg and 2.40 ± 0.48 pmol/mg	over 95%	60 min	≤ 60 min	significant main effect of target expression
